Laboratory results from the METLIN SMRT retention time set (Domingo-Almenara et al. 2019).

Assay: gradient 5% acetonitrile 3 min, to 50% in 2 min, to 85% in 15 min, held 3 min, 100 µL/min
Details: column: Zorbax Extend-C18 2.1 x 50 mm; eluents: water / acetonitrile, 0.1% formic acid
Procedure, shortened: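 Pure standards were run in mixtures of ~100 molecules by HPLC coupled to a quadrupole time-of-flight mass spectrometer. The column was a Zorbax Extend-C18 (2.1 × 50 mm, 1.8 μm) at 100 μL/min, with water and acetonitrile each containing 0.1% formic acid, in positive and negative ionization mode. Dead and dwell volumes were 40 μL and 900 μL. Retention time was taken from computationally picked adduct peaks, each manually inspected, with data collected over 3 months.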

`Cc1nc(CCNC(=O)C2CCN(S(=O)(=O)c3ccc(CC(C)C)cc3)CC2)cs1` showed an RP-LC retention time of 917 s.
`O=C(NCC1CCN(C(=O)c2cc3ccccc3o2)CC1)C(=O)Nc1cccnc1` gave an RP-LC retention time of 601 s.
`CCC(C(=O)NCc1ccc(C)o1)n1nc(C)c2nn(-c3ccccc3)c(C)c2c1=O` (centres undefined) gave an RP-LC retention time of 870 s.
`COC(=O)c1ccc(NC(=O)C2CC(=O)N(c3ccc4c(c3)CCN4C(C)=O)C2)cc1` (centres undefined) gave an RP-LC retention time of 700 s.
`CCCNC(=O)CSc1nc2nc(C)cc(C)n2n1` gave an RP-LC retention time of 611 s.
Compound `CCn1cc(C(CNC(=O)Nc2cccc(SC)c2)c2cccnc2)c2ccccc21` (centres undefined) has an RP-LC retention time of 786 s.
For `CCOC(=O)c1cc(S(=O)(=O)N2CCCC2C(=O)N2CCC3(CC2)OCCO3)cn1C` (centres undefined), the RP-LC retention time was 720 s.
`CCCNC(=O)CN1CCN(Cc2ccccc2)C1=O` gave an RP-LC retention time of 675 s.
`COCCNC(=O)C1CCc2sc(C(=O)N3CCCCCC3)cc2C1` (centres undefined) gave an RP-LC retention time of 682 s.
Work on `COc1ccc(C)c2sc(NC(=O)c3cc(C)no3)nc12` yielded an RP-LC retention time of 800 s.
With `CCOC(=O)c1cnc2nc(C)ccc2c1Nc1ccc(OC)cc1OC` the RP-LC retention time was 702 s.
Compound `Cc1oc(-c2ccc(OC(C)C)cc2)nc1CN(c1ccccc1)S(=O)(=O)c1cccs1` has an RP-LC retention time of 1290 s.
For `COc1ccc(F)cc1S(=O)(=O)N1C[C@@H]2C[C@H](NC(=O)c3ccccc3)[C@H]1C2`, the RP-LC retention time was 661 s.
`COCCn1cc(CC(=O)NC2CCCCC2)c2cccnc21` gave an RP-LC retention time of 700 s.
In the case of `Cc1ccc(Nc2c(-c3c(F)cccc3Cl)nc3ccc(C)cn23)cc1`, the RP-LC retention time was 773 s.
With `COc1ccc(C(=O)Nc2ccc3c(c2)N(C(=O)C2CCCO2)CC3)c(OC)c1OC` (centres undefined) the RP-LC retention time was 615 s.
Work on `CC(C)c1noc(-c2cc(=O)n(CC(=O)Nc3ccc(F)c(Cl)c3)c3ccccc23)n1` yielded an RP-LC retention time of 1100 s.
For `COCCN1C(=O)c2ccccc2C(C(=O)NCCCN2CCC(C)CC2)C1c1cccs1` (centres undefined), the RP-LC retention time was 640 s.
With `CC(=O)N1CCc2sc(C(=O)N3CCN(c4ccccc4F)CC3)cc2C1` the RP-LC retention time was 784 s.
Compound `COc1ccccc1CNC(=O)C1CCCN1S(=O)(=O)c1cc2c(cc1C)NC(=O)C(C)O2` (centres undefined) has an RP-LC retention time of 757 s.
`C=CCn1nnc(NCc2ccc(-c3cccc(Cl)c3C)o2)n1` gave an RP-LC retention time of 1090 s.
`Cc1ccc(S(=O)(=O)CCc2noc(C(=O)N3CCC4(CC3)OCCO4)n2)cc1` gave an RP-LC retention time of 816 s.
Compound `CN1c2ccc(F)cc2C(=O)NC12CCN(C(=O)c1ccccc1)CC2` has an RP-LC retention time of 726 s.
With `CS(=O)(=O)NC(=O)c1cc(Cl)c(COc2ccc(Cl)c(Cl)c2)cc1F` the RP-LC retention time was 1170 s.
With `CCCn1c(=O)c(-c2ccc(C(=O)NCCCN3CCCC3)cc2)nc2ccccc21` the RP-LC retention time was 653 s.
With `CCOC(=O)c1c(CN2CCOCC2)n(C)c2ccc(O)cc12` the RP-LC retention time was 578 s.
`Cc1cc(N2CCN([C@@H]3CN[C@H](C(=O)N4CCSC4)C3)CC2)n(-c2ccccc2)n1` gave an RP-LC retention time of 653 s.
With `COc1cccc(-c2cc3n(n2)CCCN(Cc2cccnc2)C3)c1` the RP-LC retention time was 526 s.
With `CCC(C)n1c(=O)c2ccccc2n(Cc2nc(-c3cccc(Cl)c3)no2)c1=O` (centres undefined) the RP-LC retention time was 1270 s.
`COc1cccc(NC(=O)C2c3ccccc3C(=O)N3CCc4cc(OC)c(OC)cc4C23)c1` (centres undefined) showed an RP-LC retention time of 784 s.
Work on `CCOC(=O)c1[nH]c(C)c(C(=O)N2CCC(CC(=O)NC(C)C)CC2)c1C` yielded an RP-LC retention time of 643 s.
With `Cc1ccc(-c2cn3cccnc3n2)cc1NC(=O)CC1CCCCC1` the RP-LC retention time was 720 s.
`Cc1ccc(CCNC(=O)CN2C(=O)C3CCCCN3c3ccc(S(=O)(=O)N(C)C)cc32)cc1` (centres undefined) gave an RP-LC retention time of 943 s.
With `Cc1cc(F)ccc1NC(=O)C1CCN(C(=O)C2Sc3ccccc3NC2=O)CC1` (centres undefined) the RP-LC retention time was 738 s.
For `CCOc1ccc(NC(=O)N2CCc3[nH]cnc3C2c2ccncc2)cc1` (centres undefined), the RP-LC retention time was 561 s.
With `C[C@@H]1C[C@H]2[C@@H]3C[C@H](F)C4=CC(=O)C(Cl)=C[C@]4(C)[C@@]3(F)[C@@H](O)C[C@]2(C)[C@@]1(O)C(=O)CO` the RP-LC retention time was 847 s.
Compound `Cc1cc(NC(=O)C(=O)NCCN2CCN(c3ccccc3F)CC2)no1` has an RP-LC retention time of 580 s.
Work on `Cc1ccc(CNC(=O)c2nc(-c3ccnc(N4CCCCC4)c3)no2)o1` yielded an RP-LC retention time of 756 s.
In the case of `CCc1nnc(C2CCN(C(=O)c3cc(C)on3)CC2)s1`, the RP-LC retention time was 624 s.
Work on `CC(C)c1cc(C(=O)Nc2ccc(F)cc2F)nc2ccnn12` yielded an RP-LC retention time of 1160 s.
For `CC(=O)N1CCc2cc(N3CC(C(=O)NC4CCCC4)CC3=O)ccc21` (centres undefined), the RP-LC retention time was 642 s.
Compound `Cc1ccc(NC(=O)C2CCCN(c3nccc(C)n3)C2)c(Br)c1` (centres undefined) has an RP-LC retention time of 889 s.
`CCC1CN2C=NC(N3CCN(C(=O)c4ccoc4)CC3)=CC2=N1` (centres undefined) showed an RP-LC retention time of 575 s.
Compound `COc1ccc(NC(=O)Cn2nc(N3CCCC3)c3ccccc3c2=O)cc1OC` has an RP-LC retention time of 796 s.
